# Test results from US12065427B2, “Heterocyclic compounds capable of activating STING” (BOEHRINGER INGELHEIM INTERNATIONAL GMBH, priority 2021, dated 2024).
# Columns and labels:
# STING HAQ-variant = biological target: T1, STING HAQ-variant (Homo sapiens, UniProt Q86WV6, G230A/H232R/R293Q/R71H); assay: IRF-inducible SEAP reporter assay in THP1-Blue ISG cells, STING HAQ-variant; format: cell-based; details: STING HAQ-variant (parental or re-introduced), 24 hours incubation
# T1 construct: parental THP1-Blue™ ISG cell lines (which express endogenously HAQ); host or cells: THP1-Blue ISG (parental, endogenous HAQ) or STING-KO clone re-transduced with HAQ (MSCV-ires-GFP-Blasti)
# Description: (§1) In Vitro Cytokine Induction Measured Via Activation of an Interferon Regulatory Factor Inducible Reporter Gene
# (§2) Activation of the STING protein expressed in cell lines results in an increase of interferon production. By the stable integration of an interferon regulatory factor (IRF)-inducible SEAP gene (secreted embryonic alkaline phosphatase) reporter construct the functional interferon signaling pathway can be monitored. Using Invivogen's THP1-Blue™ ISG colorimetric enzyme assay and a suitable optical density (OD) reader the activity of SEAP can be detected and quantified. This technique could be used to characterize pharmacological modification of the STING pathway.
# (§3) Several single nucleotide polymorphisms have been identified in the human STING gene. To determine the activity of the above described compounds, THP1-Blue™ ISG reporter cell lines expressing the different human STING variants have been generated. To do so, the endogenous human STING was first deleted using the CRISPR/CAS9 system: THP1-Blue ISG cells were electroporated with ALL-IN-ONE CRISPR plasmids targeting the STING gene (purchased from Sigma encoding the gRNA and GFP as a reporter gene for successful transduction). GFP positive cells then were sorted 24 h post transfection and expanded. Cells were then dispersed in semisolid methocel medium to allow single cell clone isolations. Clones were then screened for cGAMP responsiveness using the Quanti-Blue™ reporter assay. Non-responsive clones were subsequently analysed for STING loss by western blotting and sequencing of the STING locus.
# (§4) For the overexpression of the human STING variants, a confirmed THP1-Blue™ ISG hSTING KO clone was transduced with individual retroviral plasmids (MSCV-ires-GFP-Blasti) encoding the allelic variants of hSTING (WT (H232R), HAQ, R232H, AQ and R293Q). Transduced cells were sorted for different levels of GFP fluorescence and STING allele expression was analysed by western blot.
# (§5) Measurements of SEAP activity were performed in THP1-Blue™ ISG cells stably expressing the different human STING isoforms and the IRF-inducible SEAP reporter construct. Cells were cultivated in RPMI1640 medium with 10% fetal calf serum, 50 μg/ml Penicillin-Streptomycin, 100 μg/ml Zeocin, and 100 μg/ml Normocin in a 37°, 95% humidity and 5% CO2 incubator.
# (§6) In preparation for the assay, the cells were distributed into the assay plates with a density of 10000 cells/15 μL per well. Compounds were prepared by an 8 point serial dilution in 50% aqueous DMSO and a final dilution step into medium to ensure a final DMSO concentration of 0.5% in the assay. 5 μL of diluted compounds were added to the plates, followed by a 24 hours incubation at 37° C.
# (§7) At the day of the assay, 75 μl per well of Quanti-Blue™ reagent was added to all wells of the plate and the plate was incubated another 30 minutes at 37° C. The OD at 620 nm was measured on the EnVision reader (PerkinElmer).
# (§8) EC50 values and Hill slopes were derived from 8-point four parametric non-linear curve fittings with the Megalab software (Boehringer Ingelheim) using the OD at 620 nm.
# (§9) Data of EC50 values can be found in tables 2a-2e.
# Data of EC50 values on STING HAQ-variant can be found in table 2a. Shown data below were either derived from the parental THP1-Blue™ ISG cell lines (which express endogenously HAQ) or from genetically engineered THP1-Blue™ ISG cell lines in which first STING has been knocked-out and the HAQ specific STING isoform has been re-introduced as described above.
# [1] = tested on: Human STING (hSTING, residues 155-341); assay: Interaction with hSTING as determined by Differential Scanning Fluorimetry (DSF); format: binding; details: 100 μM test compounds, 5 μM target protein
# Procedure: Interaction with hSTING as Determined by Differential Scanning Fluorimetry (DSF)
# In DSF, the temperature at which a protein unfolds, also called the melting temperature Tm, is measured by changes in fluorescence of a dye that binds to the hydrophobic parts of the protein. Tm shifts upon binding of a small molecule are correlated with the binding affinity of this small molecule. As target protein, Human STING (hSTING, residues 155-341, MW: 21578.4 Da; protein stock solution: c=1302 μM stock solution in 20 mM Tris, 100 mM NaCl, 2 mM TCEP pH 8.8) was used, as assay buffer 20 mM Tris, 150 mM NaCI pH7.5 was added where and as necessary.
# Final concentrations of components in assay: 100 μM test compounds, 5 μM target protein, “5×” SYPR Orange (from stock solution SYPRO orange solution in DMSO (invitrogen cat.-no. S6650-500 ul), concentration “5000×”)
# 1) Dilutions of compound stock solutions (10 mM in DMSO) were prepared in assay buffer (20 mM Tris, 150 mM NaCl; pH7.5)
# 2) 5 μl fluorescent dye stock solution (5000×SYPRO Orange in DMSO) was mixed with 19 μl target protein (1302 μM) and 976 μl assay buffer.
# 3) 2 μl of this protein-dye-mixture (25×SYPRO Orange and 25 μM Protein) was added to 8 μl diluted compound solution as prepared in step 1. Final volume was 10 μl.
# 4) With every 20 compounds, two negative controls were measured.
# 5) The plates were prepared for duplicate measurement and centrifuged for 2 min at 1000 g.
# 6) For the measurement, a CFX384 Real-Time System (Bio-Rad) was used. The run consisted of 140 cycles with 0.5° C./cycle (temperature ramp 15 s/cycle, 25° C. to 95° C.).
# Data analysis: The melting curves were processed in Bio-Rad CFX Manager. Peak type was set to “negative”. Two replicates of TM (melting temperature) measurements were averaged and the standard deviation was calculated.
# STING H232R-variant = biological target: T2, STING H232R-variant (Homo sapiens, UniProt Q86WV6, H232R); assay: IRF-inducible SEAP reporter assay in THP1-Blue ISG cells, STING H232R-variant; format: cell-based; details: STING H232R-variant (WT), 24 hours incubation
# T2 construct: expressed in transfected cells; host or cells: THP1-Blue ISG hSTING KO clone, retroviral MSCV-ires-GFP-Blasti
# Description: as §1, §2, §3, §4, §5, §6, §7, §8, §9
# Data of EC50 values on STING H232R-variant can be found in table 2b: […]
# STING AQ-variant = biological target: T3, STING AQ-variant (Homo sapiens, UniProt Q86WV6, G230A/H232R/R293Q); assay: IRF-inducible SEAP reporter assay in THP1-Blue ISG cells, STING AQ-variant; format: cell-based; details: 24 hours incubation
# T3 construct: expressed in transfected cells; host or cells: THP1-Blue ISG hSTING KO clone, retroviral MSCV-ires-GFP-Blasti
# Description: as §1, §2, §3, §4, §5, §6, §7, §8, §9
# Data of EC50 values on STING AQ-variant can be found in table 2e: […]
# STING R232H-variant = biological target: T4, STING R232H-variant (Homo sapiens, UniProt Q86WV6); assay: IRF-inducible SEAP reporter assay in THP1-Blue ISG cells, STING R232H-variant; format: cell-based; details: 24 hours incubation
# T4 construct: expressed in transfected cells; host or cells: THP1-Blue ISG hSTING KO clone, retroviral MSCV-ires-GFP-Blasti
# Description: as §1, §2, §3, §4, §5, §6, §7, §8, §9
# Data of EC50 values on STING R232H-variant can be found in table 2c: […]
# in vitro = details: human, Caco-2, pH 7.4
# STING R293Q-variant = biological target: T5, STING R293Q-variant (Homo sapiens, UniProt Q86WV6, H232R/R293Q); assay: IRF-inducible SEAP reporter assay in THP1-Blue ISG cells, STING R293Q-variant; format: cell-based; details: 24 hours incubation
# T5 construct: expressed in transfected cells; host or cells: THP1-Blue ISG hSTING KO clone, retroviral MSCV-ires-GFP-Blasti
# Description: as §1, §2, §3, §4, §5, §6, §7, §8, §9
# Data of EC50 values on STING R293Q-variant can be found in table 2d: […]
# T4 sequence (Q86WV6 whole entry, stated change not applied): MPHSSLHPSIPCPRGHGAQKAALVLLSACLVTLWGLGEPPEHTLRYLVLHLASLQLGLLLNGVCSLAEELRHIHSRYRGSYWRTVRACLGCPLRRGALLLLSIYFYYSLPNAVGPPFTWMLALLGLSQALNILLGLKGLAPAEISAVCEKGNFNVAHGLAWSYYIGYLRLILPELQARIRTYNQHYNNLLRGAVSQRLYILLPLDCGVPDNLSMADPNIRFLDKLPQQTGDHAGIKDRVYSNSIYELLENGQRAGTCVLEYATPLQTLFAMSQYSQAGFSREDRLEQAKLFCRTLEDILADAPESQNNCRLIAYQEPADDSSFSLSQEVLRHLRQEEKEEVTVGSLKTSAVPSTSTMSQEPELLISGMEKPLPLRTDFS
# T1 sequence (Q86WV6 whole entry R71H/G230A/H232R/R293Q): as the sequence (Q86WV6 whole entry, stated change not applied) above, with R71H, G230A, H232R, R293Q counted along it
# T3 sequence (Q86WV6 whole entry G230A/H232R/R293Q): as the sequence (Q86WV6 whole entry, stated change not applied) above, with G230A, H232R, R293Q counted along it
# T5 sequence (Q86WV6 whole entry H232R/R293Q): as the sequence (Q86WV6 whole entry, stated change not applied) above, with H232R, R293Q counted along it
# T2 sequence (Q86WV6 whole entry H232R): as the sequence (Q86WV6 whole entry, stated change not applied) above, with H232R counted along it
SMILES,EC50 (STING HAQ-variant),thermal shift (ΔTm) [1],EC50 (STING H232R-variant),EC50 (STING AQ-variant),EC50 (STING R232H-variant),efflux ratio at 10 μM (in vitro),EC50 (STING R293Q-variant),Papp A→B at 10 μM (in vitro)
"COC(=O)C1C2CN(c3ccc(-n4nc(-c5cccc6nn(C)cc56)c5cccc(C)c54)cn3)CC21 (stereo not shown) [Example #1, Methyl 3-(5-(2′,7-dimethyl-1H,2′H-[3,4′-biindazol]-1-yl)pyridin-2-yl)-3-azabicyclo[3.1.0]hexane-6-carboxylate]",700 nM,21 K,200 nM,200 nM,200 nM,0.4,400 nM,
"Cc1cccc2c(-c3cccc4nn(C)cc34)nn(-c3ccc(N4CCC5(CCC(=O)N5)CC4)nc3)c12 [Example #2, 8-(5-{2′,7-dimethyl-1H,2′H-[3,4′-biindazol]-1-yl}pyri-din-2-yl)-1,8-dia-zaspiro[4.5]decan-2-one]",600 nM,22 K,90 nM,200 nM,50 nM,0.6,400 nM,20 ×10⁻⁶ cm/s
"Cc1cccc2c(-c3cccc4nn(C)cc34)nn(-c3ccc(N4CCN(C(N)=O)CC4)nc3)c12 [Example #7, 4-(5-{2′,7-dimethyl-1H,2′H-[3,4′-biindazol]-1-yl}pyri-din-2-yl)piperazine-1-car-boxamide]",800 nM,22 K,200 nM,600 nM,200 nM,0.6,700 nM,28 ×10⁻⁶ cm/s
"Cc1cccc2c(-c3cccc4nn(C)cc34)nn(-c3ccc(N4CCC(S(N)(=O)=O)CC4)nc3)c12 [Example #22, 1-(5-{2′,7-dimethyl-1H,2′H-[3,4'′biindazol]-1-yl}pyri-din-2-yl)piperidine-4-sul-fonamide]",700 nM,23 K,100 nM,700 nM,200 nM,1.6,700 nM,10 ×10⁻⁶ cm/s
"CCc1cccc2c(-c3cccc4nn(C)cc34)nn(-c3ccc(N4CCC(C(=O)O)CC4)nc3)c12 [Example #66, 1-(5-{7-ethyl-2′-methyl-1H,2′H-[3,4′-biindazol]-1-yl}pyridin-2-yl)piperidine-4-carboxylic acid]",1600 nM,16 K,300 nM,800 nM,200 nM,,700 nM,
"Cc1cccc2c(-c3cccc4nn(C)cc34)nn(-c3ccc(N4CCn5cncc5C4)nc3)c12 [compound 12, 1-(6-{5H,6H,7H,8H-imidazo[1,5-a]pyrazin-7-yl}pyridin-3-yl)-2′,7-dimethyl-1H,2'H-3,4′-biindazole]",1900 nM,21 K,400 nM,,600 nM,0.4,2100 nM,11 ×10⁻⁶ cm/s
"Cc1cccc2c(-c3cccc4nn(C)cc34)nn(-c3ccc(NCc4cncnc4)nc3)c12 [compound 24, 5-{2′,7-dimethyl-1H,2′H-[3,4′-biindazol]-1-yl}-N-[(pyrimidin-5-yl)methyl]pyridin-2-amine]",2700 nM,,2000 nM,,2300 nM,,2200 nM,
"Cc1cccc2c(-c3cccc4nn(C)cc34)nn(-c3ccc(N4CCN(C=O)CC4)nc3)c12 [compound 51, 4-(5-(2′,7-dimethyl-1H,2′H-[3,4′-biindazol]-1-yl)pyridin-2-yl)piperazine-1-carbaldehyde]",300 nM,15 K,50 nM,200 nM,50 nM,,300 nM,
"Cc1cccc2c(-c3cccc4nn(C)cc34)nn(-c3ccc(N4CC5(CN(C=O)C5)C4)nc3)c12 [compound 54, 6-(5-{2′,7-dimethyl-1H,2′H-[3,4′-biinda-zol]-1-yl}pyridin-2-yl)-2,6-diaza-spiro[3.3]heptane-2-carbaldehyde]",2100 nM,21 K,300 nM,5300 nM,,0.8,,38 ×10⁻⁶ cm/s
"Cn1cc2c(-c3nn(-c4ccc(N5CC6C(C5)C6C(=O)O)nc4)c4c(Br)cccc34)cccc2n1 (stereo not shown) [compound 64, 3-(5-{7-bromo-2′-methyl-1H,2′H-[3,4′-biindazol]-1-yl}pyridin-2-yl)-3-azabicy-clo[3.1.0]hexane-6-car-boxylic acid]",700 nM,,200 nM,,600 nM,,500 nM,
"CCc1cccc2c(-c3cccc4nn(C)cc34)nn(-c3ccc(N4CC5C(C4)C5C(=O)O)nc3)c12 (stereo not shown) [compound 65, 3-(5-{7-ethyl-2′-methyl-1H,2′H-[3,4′-biindazol]-1-yl}pyridin-2-yl)-3-azabicy-clo[3.1.0]hexane-6-car-boxylic acid]",200 nM,21 K,100 nM,100 nM,100 nM,,100 nM,
"Cc1cccc2c(-c3cccc4nn(C)cc34)nn(-c3ccc(N4CC5C(C4)C5C(N)=O)nc3)c12 (stereo not shown) [compound 72, 3-(5-{2′,7-dimethyl-1H,2′H-[3,4′-biindazol]-1-yl}pyridin-2-yl)-3-azabicyclo[3.1.0]hexane-6-carboxamide]",1800 nM,18 K,600 nM,800 nM,300 nM,,700 nM,
